SMILES strings stand for the structures.

Results on 16 compounds are retold here after ChEMBL document CHEMBL1147421, “Diamine derivatives with antiparasitic activities” (Bioorg Med Chem Lett, 2004).

The test system of assay [1] is Plasmodium falciparum. Briefly: Antiparasitic activity against Plasmodium falciparum D6. The format is functional, organism-based.
Assay [2] deals with Plasmodium falciparum. Briefly: Antiparasitic activity against chloroquine-resistant Plasmodium falciparum W2. The format is functional, organism-based.
Assay [3] in a line: Effective concentration expressed as antiparasitic activity against Leishmania promastigotes (Leishmania donovani); NA = Not active. The format is functional.
A short description of assay [4]: Antiparasitic activity against Leishmania promastigotes (Leishmania donovani). The format is functional.

With `NCCCCN(Cc1ccccc1)Cc1ccncc1.O=C(O)C(F)(F)F`, the EC50 entry (with Plasmodium falciparum [1]; in the assay on Plasmodium falciparum [2]; in assay [3]) was “Not Active” each time.
For `COc1ccc(CN(CCCCN)Cc2ccccc2)cc1OC.O=C(O)C(F)(F)F`, the EC50 entry with Plasmodium falciparum [1] is “Not Active”; with Plasmodium falciparum [2] (Plasmodium falciparum), 3.62 µM; in assay [4], 8.36 µM.
`NCCCCN(Cc1ccc(O)cc1)Cc1ccc(O)cc1.O=C(O)C(F)(F)F`: the EC50 result (with Plasmodium falciparum [1]; in the assay on Plasmodium falciparum [2]; in assay [3]) was “Not Active” in each case.
In the case of `COc1ccc(OC)c(CN(CCCCN)Cc2cc(OC)ccc2OC)c1.O=C(O)C(F)(F)F`, the EC50 entry was “Not Active” with Plasmodium falciparum [1], “Not Active” in the assay with Plasmodium falciparum [2] and 5.37 µM in assay [4].
Take `COc1ccc(CN(CCCN)Cc2ccc(OC)c(O)c2)cc1O.O=C(O)C(F)(F)F`: the EC50 result (in the assay with Plasmodium falciparum [1]; in the assay on Plasmodium falciparum [2]; in assay [3]) was “Not Active” in each case.
As for `COc1ccc(CN(CCCCN)Cc2ccc(OC)c(O)c2)cc1O.O=C(O)C(F)(F)F`, the half-maximal effective concentration (EC50) entry (with Plasmodium falciparum [1]; in the assay with Plasmodium falciparum [2]; in assay [3]) was “Not Active” throughout.
As for `NCCCN(Cc1ccncc1)Cc1ccncc1.O=C(O)C(F)(F)F`, the concentration giving a half-maximal response (EC50) entry (in the assay on Plasmodium falciparum [1]; with Plasmodium falciparum [2]; in assay [3]) was “Not Active” each time.
For `NCCCCN(Cc1ccccc1)Cc1ccccc1.O=C(O)C(F)(F)F`, the EC50 result with Plasmodium falciparum [1] is “Not Active”; with Plasmodium falciparum [2], “Not Active”; in assay [4], 26.2 µM.
`CC(C)c1ccc(CN(CCCCN)Cc2ccc(C(C)C)cc2)cc1.O=C(O)C(F)(F)F`: the concentration giving a half-maximal response (EC50) entry was “Not Active” in the assay with Plasmodium falciparum [1], 7.29 µM with Plasmodium falciparum [2] (Plasmodium falciparum) and 3 µM in assay [4].
For `COc1ccc(CN(CCCCN)Cc2ccc(OC)cc2OC)c(OC)c1.O=C(O)C(F)(F)F`, the EC50 in the assay on Plasmodium falciparum [1] (Plasmodium falciparum) was 7.76 µM; in the assay with Plasmodium falciparum [2], “Not Active”; in assay [3], “Not Active”.
As for `NCCCN(Cc1ccc(O)cc1)Cc1ccc(O)cc1.O=C(O)C(F)(F)F`, the 50% effective concentration (EC50) entry (in the assay with Plasmodium falciparum [1]; with Plasmodium falciparum [2]; in assay [3]) was “Not Active” in each case.
With `NCCCN(Cc1ccccc1)Cc1ccc(Cc2ccncc2)cc1.O=C(O)C(F)(F)F`, the EC50 result (with Plasmodium falciparum [1]; in the assay on Plasmodium falciparum [2]; in assay [3]) was “Not Active” throughout.
With `NCCCCN(Cc1ccccc1)Cc1ccc(Cl)cc1.O=C(O)C(F)(F)F`, the EC50 entry was “Not Active” with Plasmodium falciparum [1], “Not Active” in the assay on Plasmodium falciparum [2] and 1.61 µM in assay [4].
In the case of `NCCCCN(Cc1ccccc1)Cc1ccc(C(=O)O)cc1.O=C(O)C(F)(F)F`, the EC50 entry in the assay on Plasmodium falciparum [1] was “Not Active”; in the assay with Plasmodium falciparum [2], “Not Active”; in assay [4] it was 10.3 µM.
Turning to `COc1cc(CN(CCCN)Cc2ccc(O)c(OC)c2)ccc1O.O=C(O)C(F)(F)F`, the EC50 entry (with Plasmodium falciparum [1]; with Plasmodium falciparum [2]; in assay [3]) was “Not Active” each time.
Consider `NCCCN(Cc1ccccc1)Cc1ccc(C(=O)O)cc1.O=C(O)C(F)(F)F`, for which the EC50 entry in the assay on Plasmodium falciparum [1] was “Not Active”; in the assay with Plasmodium falciparum [2] it was “Not Active”; in assay [4], 8.97 µM.

As a reminder, the EC50 is the concentration at which the effect is half-maximal.
